Active and inactive are the calls of the source.
Key:
[1] = target: T1, Coagulation factor XII (Homo sapiens, UniProt P00748); assay type: functional;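 further: activated factor XIIa alpha cleaving a fluorogenic AMC peptide substrate; inhibitor potency from loss of enzyme activity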
T1 sequence (P00748 whole entry): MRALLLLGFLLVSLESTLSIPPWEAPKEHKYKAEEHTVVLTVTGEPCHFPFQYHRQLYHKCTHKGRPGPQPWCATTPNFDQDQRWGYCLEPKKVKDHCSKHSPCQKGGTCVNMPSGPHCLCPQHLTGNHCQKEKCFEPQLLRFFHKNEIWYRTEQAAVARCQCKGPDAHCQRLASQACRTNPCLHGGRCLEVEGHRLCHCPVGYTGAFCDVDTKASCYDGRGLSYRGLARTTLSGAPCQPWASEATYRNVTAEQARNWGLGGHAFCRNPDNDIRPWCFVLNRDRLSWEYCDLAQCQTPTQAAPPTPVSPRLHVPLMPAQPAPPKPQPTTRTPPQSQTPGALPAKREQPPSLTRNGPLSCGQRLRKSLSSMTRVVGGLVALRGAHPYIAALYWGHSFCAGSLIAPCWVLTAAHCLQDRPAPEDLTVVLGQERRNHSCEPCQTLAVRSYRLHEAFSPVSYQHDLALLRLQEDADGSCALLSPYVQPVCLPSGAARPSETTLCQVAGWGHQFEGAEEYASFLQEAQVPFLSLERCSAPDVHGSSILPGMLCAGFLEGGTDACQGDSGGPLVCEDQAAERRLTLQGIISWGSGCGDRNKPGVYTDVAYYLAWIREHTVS

[2] = target: T2, Rac GTPase-activating protein 1 (Homo sapiens, UniProt Q9H0H5); experiment: blockers of MgcRacGAP-driven Rac1 GTP hydrolysis – biochemical, ADP Hunter fluorescence, primary and confirmatory, confirmation (AID 624330); assay type: functional
T2 sequence (Q9H0H5 whole entry): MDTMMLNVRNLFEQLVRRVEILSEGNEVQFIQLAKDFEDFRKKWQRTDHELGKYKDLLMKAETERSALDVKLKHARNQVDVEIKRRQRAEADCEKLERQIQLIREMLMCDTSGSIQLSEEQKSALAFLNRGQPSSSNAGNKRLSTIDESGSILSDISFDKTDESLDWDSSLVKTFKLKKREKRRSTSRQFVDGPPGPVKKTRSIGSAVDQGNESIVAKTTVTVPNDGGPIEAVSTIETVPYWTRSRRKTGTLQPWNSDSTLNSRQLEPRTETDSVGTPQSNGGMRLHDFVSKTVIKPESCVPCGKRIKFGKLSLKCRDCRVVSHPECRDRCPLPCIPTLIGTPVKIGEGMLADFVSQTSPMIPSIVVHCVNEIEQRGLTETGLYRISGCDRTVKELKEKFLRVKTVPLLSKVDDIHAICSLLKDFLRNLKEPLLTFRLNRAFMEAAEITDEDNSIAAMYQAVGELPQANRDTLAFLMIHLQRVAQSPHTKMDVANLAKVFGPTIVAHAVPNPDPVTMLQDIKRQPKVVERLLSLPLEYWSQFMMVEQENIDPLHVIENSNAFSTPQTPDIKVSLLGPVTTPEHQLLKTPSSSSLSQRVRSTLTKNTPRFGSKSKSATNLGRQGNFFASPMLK

[3] = target: Troponin, cardiac muscle (Homo sapiens, UniProt P19429+P45379+P63316); experiment: Fluorescence-based biochemical high throughput dose response assay for activators of the calcium sensitivity of cardiac Regulated Thin Filaments (RTF). [Related pubchem assays (depositor defined):AID493008, AID493018, AID504382, AID504383]; assay type: protein-complex assay
[4] = target: Peroxisome proliferator-activated receptor gamma/Nuclear receptor coactivator 1 (Homo sapiens, UniProt P37231); experiment: (§1) TR-FRET dose response biochemical High Throughput Screening assay for agonists of the steroid receptor coactivator 1 (SRC-1) recruitment by the peroxisome proliferator-activated receptor gamma (PPAR gamma): non-selective agonists. [Related pubchem assays (depositor defined):AID1300, AID1808, AID504735, AID631]; assay type: protein assay
[5] = target: Peroxisome proliferator-activated receptor gamma/Nuclear receptor coactivator 3 (Homo sapiens, UniProt P37231); experiment: as §1, with “3 (SRC-3)” for “1 (SRC-1)”, “assays: 1301 (Confirmation screen.), 1048 (Primary screen.)]” for “assays (depositor defined):AID1300, AID1808, AID504735, AID631]”; assay type: functional
[6] = target: Peroxisome proliferator-activated receptor gamma/Nuclear receptor coactivator 2 (Homo sapiens, UniProt P37231); experiment: TR-FRET dose response biochemical High Throughput Screening assay for agonists of the steroid receptor coactivator 2 (SRC-2) recruitment by the peroxisome proliferator-activated receptor gamma (PPAR gamma): non-selective agonists. [Related pubchem assays: 1297, 1032 ]; assay type: functional
[7] = Luminescence Cell-Based Dose Retest to Confirm Inhibitors of Cancer Stem Cells. [Related pubchem assays (depositor defined):AID2717, AID2721]; assay type: functional, Homo sapiens; conditions: Homo sapiens
[8] = target: T3, Hexokinase HKDC1 (Homo sapiens, UniProt Q2TB90); experiment: activation of HKDC1 glucose phosphorylation – biochemical, W721R variant, dose response (AID 504730); assay type: functional
T3 sequence (Q2TB90 whole entry): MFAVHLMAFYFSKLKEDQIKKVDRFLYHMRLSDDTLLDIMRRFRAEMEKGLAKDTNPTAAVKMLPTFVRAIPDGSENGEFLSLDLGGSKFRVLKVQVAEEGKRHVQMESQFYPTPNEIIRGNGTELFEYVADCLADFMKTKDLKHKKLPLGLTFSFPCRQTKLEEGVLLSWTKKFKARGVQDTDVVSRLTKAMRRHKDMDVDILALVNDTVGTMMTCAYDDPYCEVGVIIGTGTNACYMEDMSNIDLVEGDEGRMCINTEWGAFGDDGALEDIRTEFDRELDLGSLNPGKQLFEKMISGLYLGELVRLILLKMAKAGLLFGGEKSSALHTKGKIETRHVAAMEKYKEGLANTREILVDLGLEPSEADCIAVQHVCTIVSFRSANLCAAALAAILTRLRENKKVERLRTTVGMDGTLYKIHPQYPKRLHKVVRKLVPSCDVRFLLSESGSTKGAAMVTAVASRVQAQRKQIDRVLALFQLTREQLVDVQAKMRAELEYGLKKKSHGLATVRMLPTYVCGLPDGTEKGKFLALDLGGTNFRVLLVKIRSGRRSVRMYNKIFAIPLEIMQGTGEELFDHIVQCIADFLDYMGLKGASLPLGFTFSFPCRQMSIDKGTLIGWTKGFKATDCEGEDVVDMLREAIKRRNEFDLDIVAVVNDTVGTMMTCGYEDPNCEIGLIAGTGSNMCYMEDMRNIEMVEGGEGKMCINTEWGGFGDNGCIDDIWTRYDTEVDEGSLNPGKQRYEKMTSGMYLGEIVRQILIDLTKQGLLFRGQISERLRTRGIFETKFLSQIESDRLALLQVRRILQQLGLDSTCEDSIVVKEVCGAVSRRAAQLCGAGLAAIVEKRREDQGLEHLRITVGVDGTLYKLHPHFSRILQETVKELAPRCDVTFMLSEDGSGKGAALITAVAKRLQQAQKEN

[9] = target: T4, Hexokinase-1 (Homo sapiens, UniProt P19367); experiment: HK1 enzyme activation by HKDC1 hits – biochemical, selectivity assay for HKDC1 activator project, dose response (AID 504762); assay type: functional
T4 sequence (P19367 whole entry): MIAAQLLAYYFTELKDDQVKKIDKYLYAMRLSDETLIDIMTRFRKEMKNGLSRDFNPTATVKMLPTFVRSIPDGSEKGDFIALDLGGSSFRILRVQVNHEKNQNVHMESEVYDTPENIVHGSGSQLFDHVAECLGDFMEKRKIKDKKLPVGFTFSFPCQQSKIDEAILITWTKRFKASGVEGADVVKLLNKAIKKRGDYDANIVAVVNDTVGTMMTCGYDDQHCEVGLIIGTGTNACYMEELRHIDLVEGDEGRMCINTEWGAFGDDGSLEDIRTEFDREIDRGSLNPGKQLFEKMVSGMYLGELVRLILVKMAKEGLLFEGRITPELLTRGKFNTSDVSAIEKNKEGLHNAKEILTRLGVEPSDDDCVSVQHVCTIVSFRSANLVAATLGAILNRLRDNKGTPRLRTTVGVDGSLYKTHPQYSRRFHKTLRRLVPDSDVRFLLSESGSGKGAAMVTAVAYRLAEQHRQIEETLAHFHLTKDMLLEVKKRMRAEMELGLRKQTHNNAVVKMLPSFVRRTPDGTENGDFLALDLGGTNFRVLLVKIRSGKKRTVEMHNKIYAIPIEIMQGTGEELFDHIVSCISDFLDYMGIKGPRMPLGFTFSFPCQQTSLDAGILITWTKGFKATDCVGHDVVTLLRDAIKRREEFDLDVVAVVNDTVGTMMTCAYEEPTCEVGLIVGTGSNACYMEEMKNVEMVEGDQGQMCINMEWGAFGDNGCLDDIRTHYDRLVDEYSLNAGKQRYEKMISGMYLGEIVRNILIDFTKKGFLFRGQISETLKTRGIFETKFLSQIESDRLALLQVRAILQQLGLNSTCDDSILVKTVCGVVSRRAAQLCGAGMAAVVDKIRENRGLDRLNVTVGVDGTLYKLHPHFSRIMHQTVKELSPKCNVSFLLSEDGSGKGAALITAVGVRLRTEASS

[10] = test system: INS1; experiment: INS-1E survival protection against cytokine death – cell-based, luminescence, retest, dose response (AID 449756); assay type: functional; conditions: Rattus norvegicus;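 further: cell death triggered by IL-1 beta plus TNF-alpha plus IFN-gamma mixture; protective hits raise ATP signal compared with cytokine alone wells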
[11] = target: T5, Heat shock factor protein 1 (Mus musculus, UniProt P38532); experiment: decrease of HSF1-responsive luciferase luminescence – cell-based, NIH3T3, dose retest, confirmation (AID 2382); assay type: functional;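 further: NIH3T3 fibroblasts with HSF1-driven luciferase reporter stressed by proteasome inhibitor MG132; luminescence from HSF1-driven luciferase expression after 8 hours of MG132 stress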
T5 sequence (P38532 whole entry): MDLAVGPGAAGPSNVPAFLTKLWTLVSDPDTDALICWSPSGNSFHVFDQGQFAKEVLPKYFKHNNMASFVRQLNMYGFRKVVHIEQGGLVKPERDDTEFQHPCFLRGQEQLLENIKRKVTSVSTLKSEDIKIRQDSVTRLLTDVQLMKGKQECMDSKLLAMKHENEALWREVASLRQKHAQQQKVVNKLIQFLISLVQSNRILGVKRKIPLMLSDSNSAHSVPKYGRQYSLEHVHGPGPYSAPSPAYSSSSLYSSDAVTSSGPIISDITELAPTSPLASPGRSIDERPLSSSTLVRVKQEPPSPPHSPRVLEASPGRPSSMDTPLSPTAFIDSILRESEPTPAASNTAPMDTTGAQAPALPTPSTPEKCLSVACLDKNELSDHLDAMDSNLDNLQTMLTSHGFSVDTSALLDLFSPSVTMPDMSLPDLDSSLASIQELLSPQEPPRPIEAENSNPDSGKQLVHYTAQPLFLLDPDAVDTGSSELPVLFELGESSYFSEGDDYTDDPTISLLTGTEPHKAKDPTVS

[12] = target: DNA damage-inducible transcript 3 protein (Mus musculus, UniProt P35639); assay type: functional, Cricetulus griseus
[13] = target: X-box-binding protein 1 (Homo sapiens, UniProt P17861); assay type: functional, Cricetulus griseus;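 further: confirmatory dose-response counter-screen serving a CHOP assay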
[14] = target: T6, Endoribonuclease toxin MazF (Escherichia coli K-12, UniProt P0AE70); experiment: activation of MazEF endoribonuclease cleavage – biochemical, fluorescence, single-stranded RNA substrate, uHTS hits, dose response (AID 588481); assay type: functional
T6 sequence (P0AE70 whole entry): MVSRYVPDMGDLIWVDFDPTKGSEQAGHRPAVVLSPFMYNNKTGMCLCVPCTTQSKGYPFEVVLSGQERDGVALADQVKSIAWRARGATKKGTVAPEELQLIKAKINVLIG

[15] = target: T6, Endoribonuclease toxin MazF; experiment: substrate-only fluorescence increase artefacts – biochemical, single-stranded RNase substrate, counter-screen for MazEF activator project, dose response (AID 588502); assay type: functional
[16] = blockers of HIV-1 envelope-mediated cell-cell fusion – cherry-pick, dose response (AID 652057); assay type: functional, cell-based
[17] = blockers of HIV-1 ZM109 envelope-driven cell-cell fusion – HeLa effector, CEM target cells, luciferase, cherry-pick, dose response (AID 652058); assay type: functional, cell-based;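 further: luciferase signal from HIV-1 Env mediated cell-cell fusion of effector and target cells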
[18] = off-target signal loss in HeLa-CEM21 co-culture – HeLa F-luc CTL cells, cherry-picked, counter-screen for HIV-1 Env fusion inhibitor project, dose response (AID 652040); assay type: functional, cell-based;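 further: potency for signal decrease marking cytotoxic or nonspecific inhibition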
[19] = HIV-1 AD8 envelope cell-cell fusion blockers – cherry-pick, dose response (AID 652062); assay type: functional, cell-based;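 further: luciferase signal from cell-cell fusion driven by HIV-1 clade B AD8 Env; potency is for inhibitors of fusion seen as a drop in luminescence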
[20] = target: Luciferin 4-monooxygenase (Photinus pyralis, UniProt P08659); experiment: inhibition of purified Photinus pyralis luciferase – biochemical, luminescence, dose response (AID 1891)
[21] = target: DNA dC->dU-editing enzyme APOBEC-3G (Homo sapiens, UniProt Q9HC16); experiment: Dose Response confirmation of small molecule APOBEC3G DNA Deaminase Inhibitors via a fluorescence-based single-stranded DNA deaminase assay. [Related pubchem assays (depositor defined):AID493012, AID493028]; assay type: functional
[22] = target: Cytochrome P450 2C9 (Homo sapiens, UniProt P11712)

Sequence of Peroxisome proliferator-activated receptor gamma/Nuclear receptor coactivator 3 (P37231 whole entry): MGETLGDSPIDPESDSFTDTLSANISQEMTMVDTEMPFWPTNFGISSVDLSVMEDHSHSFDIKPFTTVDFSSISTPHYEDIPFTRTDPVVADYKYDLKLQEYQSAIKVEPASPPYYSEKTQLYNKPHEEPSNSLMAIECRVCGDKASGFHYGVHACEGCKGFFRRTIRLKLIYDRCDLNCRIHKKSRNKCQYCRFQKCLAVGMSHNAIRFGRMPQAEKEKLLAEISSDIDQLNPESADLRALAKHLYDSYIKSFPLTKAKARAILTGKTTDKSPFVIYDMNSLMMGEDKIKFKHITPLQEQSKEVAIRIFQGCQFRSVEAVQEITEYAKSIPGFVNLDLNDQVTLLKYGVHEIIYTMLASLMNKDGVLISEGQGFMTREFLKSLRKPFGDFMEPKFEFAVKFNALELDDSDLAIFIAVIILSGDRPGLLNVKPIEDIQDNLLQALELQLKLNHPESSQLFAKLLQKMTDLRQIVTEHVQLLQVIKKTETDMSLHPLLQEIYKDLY
Sequence of Peroxisome proliferator-activated receptor gamma/Nuclear receptor coactivator 3 (Q9Y6Q9 whole entry, further chain): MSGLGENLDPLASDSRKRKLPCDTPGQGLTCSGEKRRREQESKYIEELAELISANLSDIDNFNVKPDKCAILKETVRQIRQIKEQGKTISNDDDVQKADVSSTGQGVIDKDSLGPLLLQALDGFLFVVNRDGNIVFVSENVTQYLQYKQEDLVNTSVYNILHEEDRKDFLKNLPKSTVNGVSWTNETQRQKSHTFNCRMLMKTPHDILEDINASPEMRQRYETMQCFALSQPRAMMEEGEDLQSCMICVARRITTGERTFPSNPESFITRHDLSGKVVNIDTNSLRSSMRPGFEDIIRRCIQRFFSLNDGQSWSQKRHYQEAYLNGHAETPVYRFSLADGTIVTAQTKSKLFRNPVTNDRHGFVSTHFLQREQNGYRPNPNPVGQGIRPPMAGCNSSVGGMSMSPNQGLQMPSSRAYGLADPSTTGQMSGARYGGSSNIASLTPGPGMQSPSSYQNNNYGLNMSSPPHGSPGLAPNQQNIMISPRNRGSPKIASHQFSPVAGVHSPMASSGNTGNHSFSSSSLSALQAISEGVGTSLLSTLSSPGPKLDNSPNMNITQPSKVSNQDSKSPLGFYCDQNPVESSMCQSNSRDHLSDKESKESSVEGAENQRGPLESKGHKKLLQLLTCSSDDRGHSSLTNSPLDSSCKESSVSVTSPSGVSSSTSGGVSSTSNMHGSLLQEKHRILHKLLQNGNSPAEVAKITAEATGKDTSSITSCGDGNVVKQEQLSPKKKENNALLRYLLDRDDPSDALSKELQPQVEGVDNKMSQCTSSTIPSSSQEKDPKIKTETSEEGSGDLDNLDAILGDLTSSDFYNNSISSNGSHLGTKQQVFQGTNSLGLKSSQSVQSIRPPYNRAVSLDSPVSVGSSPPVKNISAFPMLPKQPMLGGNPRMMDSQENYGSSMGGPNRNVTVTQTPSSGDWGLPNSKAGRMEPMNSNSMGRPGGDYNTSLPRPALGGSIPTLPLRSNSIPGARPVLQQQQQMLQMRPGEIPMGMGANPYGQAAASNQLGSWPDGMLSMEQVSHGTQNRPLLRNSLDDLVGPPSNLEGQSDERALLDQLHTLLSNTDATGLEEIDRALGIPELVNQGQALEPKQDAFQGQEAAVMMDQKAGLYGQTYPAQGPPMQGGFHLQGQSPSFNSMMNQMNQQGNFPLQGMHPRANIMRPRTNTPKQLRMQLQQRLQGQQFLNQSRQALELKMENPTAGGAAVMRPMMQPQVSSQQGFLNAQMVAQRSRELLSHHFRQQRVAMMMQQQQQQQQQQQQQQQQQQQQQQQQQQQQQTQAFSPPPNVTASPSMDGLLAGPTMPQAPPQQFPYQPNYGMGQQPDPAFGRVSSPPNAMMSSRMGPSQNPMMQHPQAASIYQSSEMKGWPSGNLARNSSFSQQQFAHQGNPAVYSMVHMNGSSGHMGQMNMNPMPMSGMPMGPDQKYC
Sequence of Peroxisome proliferator-activated receptor gamma/Nuclear receptor coactivator 2 (P37231 whole entry): as the sequence (P37231 whole entry) above
Sequence of Peroxisome proliferator-activated receptor gamma/Nuclear receptor coactivator 2 (Q15596 whole entry, further chain): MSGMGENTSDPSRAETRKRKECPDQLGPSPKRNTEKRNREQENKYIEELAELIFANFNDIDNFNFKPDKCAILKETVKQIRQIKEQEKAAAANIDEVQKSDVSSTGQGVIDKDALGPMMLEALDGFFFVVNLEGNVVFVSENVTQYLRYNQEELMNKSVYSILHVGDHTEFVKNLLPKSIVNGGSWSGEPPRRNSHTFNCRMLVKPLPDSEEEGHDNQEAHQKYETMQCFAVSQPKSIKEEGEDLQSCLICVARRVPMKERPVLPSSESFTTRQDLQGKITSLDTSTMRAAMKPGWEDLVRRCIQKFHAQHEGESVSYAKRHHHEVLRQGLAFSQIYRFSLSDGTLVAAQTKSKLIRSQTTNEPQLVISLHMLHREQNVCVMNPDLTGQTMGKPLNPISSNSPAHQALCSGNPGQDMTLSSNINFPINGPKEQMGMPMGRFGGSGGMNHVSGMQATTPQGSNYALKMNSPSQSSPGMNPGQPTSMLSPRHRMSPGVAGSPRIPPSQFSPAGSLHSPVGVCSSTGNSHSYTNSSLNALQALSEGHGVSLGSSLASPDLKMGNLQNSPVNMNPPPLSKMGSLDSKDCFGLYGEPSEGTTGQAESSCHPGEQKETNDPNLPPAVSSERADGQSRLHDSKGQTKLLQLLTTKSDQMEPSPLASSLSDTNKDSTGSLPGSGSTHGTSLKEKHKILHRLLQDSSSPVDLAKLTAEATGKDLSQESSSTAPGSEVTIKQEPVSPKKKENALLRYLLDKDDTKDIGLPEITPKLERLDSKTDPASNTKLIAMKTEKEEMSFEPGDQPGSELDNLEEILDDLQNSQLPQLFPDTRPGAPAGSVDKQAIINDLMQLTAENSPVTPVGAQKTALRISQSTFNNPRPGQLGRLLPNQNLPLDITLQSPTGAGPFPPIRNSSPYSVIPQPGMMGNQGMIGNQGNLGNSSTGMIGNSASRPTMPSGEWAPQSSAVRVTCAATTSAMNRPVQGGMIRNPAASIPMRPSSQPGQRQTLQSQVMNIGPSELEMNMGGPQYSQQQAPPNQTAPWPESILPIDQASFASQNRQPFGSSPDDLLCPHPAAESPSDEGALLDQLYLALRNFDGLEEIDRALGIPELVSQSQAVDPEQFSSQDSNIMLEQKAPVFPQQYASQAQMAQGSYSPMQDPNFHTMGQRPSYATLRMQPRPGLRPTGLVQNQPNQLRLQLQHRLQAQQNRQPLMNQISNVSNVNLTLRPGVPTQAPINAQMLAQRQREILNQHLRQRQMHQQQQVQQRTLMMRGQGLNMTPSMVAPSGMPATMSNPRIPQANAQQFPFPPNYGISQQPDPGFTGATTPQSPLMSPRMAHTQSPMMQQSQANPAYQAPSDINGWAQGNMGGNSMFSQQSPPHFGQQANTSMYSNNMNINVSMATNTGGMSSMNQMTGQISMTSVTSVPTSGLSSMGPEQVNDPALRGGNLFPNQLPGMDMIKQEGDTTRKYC
Sequence of DNA dC->dU-editing enzyme APOBEC-3G (Q9HC16 whole entry): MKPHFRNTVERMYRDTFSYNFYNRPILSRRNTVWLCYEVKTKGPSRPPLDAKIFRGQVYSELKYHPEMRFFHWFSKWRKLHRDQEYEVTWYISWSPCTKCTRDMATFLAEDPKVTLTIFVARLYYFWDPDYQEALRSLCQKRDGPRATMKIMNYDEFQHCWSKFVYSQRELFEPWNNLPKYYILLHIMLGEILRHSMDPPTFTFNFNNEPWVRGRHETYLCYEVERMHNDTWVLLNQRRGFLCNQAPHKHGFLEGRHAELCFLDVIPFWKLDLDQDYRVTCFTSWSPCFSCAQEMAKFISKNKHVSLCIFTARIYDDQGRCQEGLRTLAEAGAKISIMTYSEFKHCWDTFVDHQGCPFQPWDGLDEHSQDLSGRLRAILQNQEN
Sequence of Luciferin 4-monooxygenase (P08659 whole entry): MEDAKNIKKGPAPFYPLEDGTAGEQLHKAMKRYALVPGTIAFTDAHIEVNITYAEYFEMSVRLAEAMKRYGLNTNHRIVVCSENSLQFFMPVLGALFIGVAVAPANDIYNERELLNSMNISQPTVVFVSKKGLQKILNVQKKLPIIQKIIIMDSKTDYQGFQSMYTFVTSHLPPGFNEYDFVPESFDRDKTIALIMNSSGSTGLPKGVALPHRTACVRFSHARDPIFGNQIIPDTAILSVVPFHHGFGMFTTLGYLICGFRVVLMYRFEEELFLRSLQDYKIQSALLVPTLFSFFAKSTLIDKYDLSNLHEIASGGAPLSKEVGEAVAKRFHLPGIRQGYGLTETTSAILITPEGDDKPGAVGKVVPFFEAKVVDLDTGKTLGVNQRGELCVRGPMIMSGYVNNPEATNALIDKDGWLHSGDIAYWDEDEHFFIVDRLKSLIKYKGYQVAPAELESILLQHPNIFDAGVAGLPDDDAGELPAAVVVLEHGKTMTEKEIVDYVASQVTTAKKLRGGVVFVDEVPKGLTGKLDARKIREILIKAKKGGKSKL
Sequence of DNA damage-inducible transcript 3 protein (P35639 whole entry): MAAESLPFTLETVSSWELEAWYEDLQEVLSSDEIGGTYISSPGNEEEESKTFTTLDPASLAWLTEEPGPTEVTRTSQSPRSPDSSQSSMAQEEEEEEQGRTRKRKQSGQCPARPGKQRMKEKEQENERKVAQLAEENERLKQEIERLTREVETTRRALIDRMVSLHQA

COC(=O)c1ccc(NC(=S)Nc2ccc(O)cc2)cc1
IC50 [1]: > 50 µM (inactive)
IC50 [2]: 43.1 µM (active)

O=C(CNCc1cccs1)Nc1ccc(S(=O)(=O)N2CCCCC2)cc1
EC50 [3]: > 71.5 µM (inactive)

CCN1CCCC1CNC(=O)CSc1cc(=O)n(CC)c2ccccc12 (configuration not stated)
EC50 [4]: > 79.4 µM (inactive)
EC50 [5]: > 79.4 µM (not active)
EC50 [6]: > 79.4 µM (not active)

Cc1nc2c3cc(F)ccc3n(Cc3ccccc3)c2s1
AC50 [7]: 83.6 µM (active)
EC50 [8]: 39.2 µM (inactive)
EC50 [9]: 57.5 µM (inactive)
AC50 [10]: > 260 µM (inactive)

Cc1cccc2cc3c(N)c(C#N)sc3nc12
EC50 [11]: > 195 µM (not active)
Absolute IC50 (CHOP) [12]: 10 µM
Absolute IC50 (XBP1) [13]: 10 µM
EC50 [14]: > 99 µM (inactive)
EC50 [15]: 43.1 µM (inactive)
AC50 [16]: 2.64 µM (active)
AC50 [17]: 6.95 µM (active)
AC50 [18]: 1.94 µM (active)
AC50 [19]: 5.1 µM (active)

Cc1ccc(OCc2nnc(SCC(=O)O)n2N)cc1
IC50 [1]: > 50 µM (inactive)

C=CCn1c(-c2cc(Cl)ccc2OC)n[nH]c1=S
EC50 [4]: 21.4 µM (inactive)
EC50 [5]: > 79.4 µM (not active)
EC50 [20]: > 112 µM (not active)
EC50 [6]: 28.9 µM (not active)
IC50 [21]: 8.82 µM (active)

CCN1C(=O)/C(=C/C=C2/SCCN2C)SC1=S
EC50 [3]: 1.54 µM (active)
AC50 [22]: 4.47 µM (inconclusive)

From ChEMBL document CHEMBL1201862, “PubChem BioAssay data set” (2004)
